Converted amounts (≈) assume the structure as drawn.
Tests used:
[1] = system: vancomycin-resistant enterococci; assay: broth micro-dilution, mean geometric MIC; assay type: cell-based, Enterococcus faecium and Enterococcus faecalis; settings: enterococci, 24-hour incubation
[2] = system: Staphylococcus aureus 447; assay: broth micro-dilution MIC; assay type: cell-based
Method: (§1) The MIC's were determined using a standard broth micro-dilution assay.

[3] = system: Staphylococcus aureus SA1199A; assay: broth micro-dilution MIC; assay type: cell-based
Method: as §1

[4] = system: Staphylococcus aureus 446; assay: broth micro-dilution MIC; assay type: cell-based
Method: as §1

[5] = system: Staphylococcus aureus X400; assay: broth micro-dilution MIC; assay type: cell-based
Method: as §1

[6] = system: Staphylococcus aureus SA1199; assay: broth micro-dilution MIC; assay type: cell-based
Method: as §1

[7] = system: Staphylococcus aureus 491; assay: broth micro-dilution MIC; assay type: cell-based
Method: as §1

[8] = system: Entercoccus faecium 276; assay: broth micro-dilution MIC; assay type: cell-based
Method: as §1

[9] = system: Entercoccus faecium 180-1; assay: broth micro-dilution MIC; assay type: cell-based
Method: as §1

[10] = system: Staphylococcus aureus 489; assay: broth micro-dilution MIC; assay type: cell-based
Method: as §1

[11] = system: Staphylococcus aureus X778; assay: broth micro-dilution MIC; assay type: cell-based
Method: as §1

[12] = system: Streptococcus pyogenes C203; assay: broth micro-dilution MIC; assay type: cell-based
Method: as §1

[13] = system: vancomycin-susceptible enterococci; assay: broth micro-dilution, mean geometric MIC; assay type: cell-based, Enterococcus faecium and Enterococcus faecalis; settings: enterococci, 24-hour incubation
[14] = system: Staphylococcus aureus SA1199B; assay type: cell-based
Method: as §1

[15] = system: Staphylococcus aureus S13E; assay type: cell-based
Method: as §1

[16] = system: Haemophilus influenzae RD; assay: broth micro-dilution MIC; assay type: cell-based; settings: Haemophilus influenzae RD
Method: (§2) The formula I compounds have in vitro and in vivo activity against Gram-positive pathogenic bacteria. The MIC's were determined using a standard broth micro-dilution assay.

[17] = system: Staphylococcus epidermidis 270; assay: broth micro-dilution MIC; assay type: cell-based
Method: as §2

[18] = system: Streptococcus pneumoniae P1; assay: broth micro-dilution MIC; assay type: cell-based
Method: as §2

[19] = system: Entercoccus faecium 180; assay: broth micro-dilution MIC; assay type: cell-based; settings: Entercoccus faecium 180
Method: as §2

[20] = system: Entercoccus faecium 2041; assay: broth micro-dilution MIC; assay type: cell-based; settings: Entercoccus faecium 2041
Method: as §2

[21] = system: Enterococcus gallinarum 245; assay: broth micro-dilution MIC; assay type: cell-based; settings: Enterococcus gallinarum 245
Method: as §2

[22] = system: Staphylococcus haemolyticus 105; assay: broth micro-dilution MIC; assay type: cell-based
Method: as §2

[23] = system: Staphylococcus haemolyticus 415; assay: broth micro-dilution MIC; assay type: cell-based
Method: as §2

Row | SMILES | mean geometric MIC, Vancomycin Resistant Strains [1] [µg/mL] | MIC [2] [µg/mL] | MIC [3] [µg/mL] | MIC [4] [µg/mL] | MIC [5] [µg/mL] | MIC [6] [µg/mL] | MIC [7] [µg/mL] | MIC [8] [µg/mL] | MIC [9] [µg/mL] | MIC [10] [µg/mL] | MIC [11] [µg/mL] | MIC [12] [µg/mL] | mean geometric MIC, Vancomycin Sensitive Strains [13] [µg/mL] | MIC [14] [µg/mL] | MIC [15] [µg/mL] | MIC [16] [µg/mL] | MIC [17] [µg/mL] | MIC [18] [µg/mL] | MIC [19] [µg/mL] | MIC [20] [µg/mL] | further results
1 | CNC(CC(C)C)C(=O)NC1C(=O)NC(CC(N)=O)C(=O)NC2C(=O)NC3C(=O)NC(C(=O)NC(C(=O)O)c4cc(O)cc(O)c4-c4cc3ccc4O)C(OC3CC(C)(N)C(O)C(C)O3)c3ccc(c(Cl)c3)Oc3cc2cc(c3OC2OC(CO)C(O)C(O)C2OC2CC(C)(NCCCCCCCCOc3ccccc3)C(O)C(C)O2)Oc2ccc(cc2Cl)C1O (centres unmarked) [Compound 195] | 2.0 | 1 (≈ 0.557 µM) | ≤ 0.06 | 0.5 (≈ 0.278 µM) | 2 (≈ 1.11 µM) | 0.5 (≈ 0.278 µM) | 0.5 (≈ 0.278 µM) | 0.25 (≈ 0.139 µM) | ≤ 0.06 | 1 (≈ 0.557 µM) | 0.5 (≈ 0.278 µM) | ≤ 0.06 | 0.042 | 1 (≈ 0.557 µM) | 2 (≈ 1.11 µM) | 32 (≈ 17.8 µM) | 0.25 (≈ 0.139 µM) | ≤ 0.06 | 0.5 (≈ 0.278 µM) | ≤ 0.06 | MIC [21]: 4 µg/mL (≈ 2.23 µM); MIC [22]: 1 µg/mL (≈ 0.557 µM); MIC [23]: 4 µg/mL (≈ 2.23 µM)
2 | CNC(CC(C)C)C(=O)NC1C(=O)NC(CC(N)=O)C(=O)NC2C(=O)NC3C(=O)NC(C(=O)NC(C(=O)O)c4cc(O)cc(O)c4-c4cc3ccc4O)C(OC3CC(C)(N)C(O)C(C)O3)c3ccc(c(Cl)c3)Oc3cc2cc(c3OC2OC(CO)C(O)C(O)C2OC2CC(C)(NCCCCCCCCCCc3ccccc3)C(O)C(C)O2)Oc2ccc(cc2Cl)C1O (centres unmarked) [Compound 197] | 1.2 | 2 (≈ 1.11 µM) | 1 (≈ 0.553 µM) | 1 (≈ 0.553 µM) | 2 (≈ 1.11 µM) | 2 (≈ 1.11 µM) | 1 (≈ 0.553 µM) | 1 (≈ 0.553 µM) | 0.25 (≈ 0.138 µM) | 2 (≈ 1.11 µM) | 2 (≈ 1.11 µM) | ≤ 0.06 | 0.16 | 2 (≈ 1.11 µM) | 2 (≈ 1.11 µM) | 32 (≈ 17.7 µM) | 0.5 (≈ 0.276 µM) | ≤ 0.06 | 0.5 (≈ 0.276 µM) | 0.25 (≈ 0.138 µM) | MIC [21]: 4 µg/mL (≈ 2.21 µM); MIC [22]: 1 µg/mL (≈ 0.553 µM); MIC [23]: 4 µg/mL (≈ 2.21 µM)
3 | CNC(CC(C)C)C(=O)NC1C(=O)NC(CC(N)=O)C(=O)NC2C(=O)NC3C(=O)NC(C(=O)NC(C(=O)O)c4cc(O)cc(O)c4-c4cc3ccc4O)C(OC3CC(C)(N)C(O)C(C)O3)c3ccc(c(Cl)c3)Oc3cc2cc(c3OC2OC(CO)C(O)C(O)C2OC2CC(C)(NCCCCCCCCBr)C(O)C(C)O2)Oc2ccc(cc2Cl)C1O (centres unmarked) [Compound 198] | 3.4 | 0.125 (≈ 0.0701 µM) | ≤ 0.06 | 1 (≈ 0.561 µM) | 0.5 (≈ 0.28 µM) | 0.5 (≈ 0.28 µM) | ≤ 0.06 | 0.25 (≈ 0.14 µM) | ≤ 0.06 | 0.125 (≈ 0.0701 µM) | 0.125 (≈ 0.0701 µM) | ≤ 0.06 | 0.062 | 0.5 (≈ 0.28 µM) | 0.125 (≈ 0.0701 µM) | 32 (≈ 17.9 µM) | 0.25 (≈ 0.14 µM) | ≤ 0.06 | ≤ 0.06 | ≤ 0.06 | MIC [21]: 1 µg/mL (≈ 0.561 µM); MIC [22]: 0.5 µg/mL (≈ 0.28 µM); MIC [23]: 1 µg/mL (≈ 0.561 µM)
4 | CNC(CC(C)C)C(=O)NC1C(=O)NC(CC(N)=O)C(=O)NC2C(=O)NC3C(=O)NC(C(=O)NC(C(=O)O)c4cc(O)cc(O)c4-c4cc3ccc4O)C(OC3CC(C)(N)C(O)C(C)O3)c3ccc(c(Cl)c3)Oc3cc2cc(c3OC2OC(CO)C(O)C(O)C2OC2CC(C)(NCCCCCCCCOc3ccc(Oc4ccccc4)cc3)C(O)C(C)O2)Oc2ccc(cc2Cl)C1O (centres unmarked) [Compound 202] | 1.4 | 8 (≈ 4.24 µM) | 2 (≈ 1.06 µM) | 4 (≈ 2.12 µM) | 4 (≈ 2.12 µM) | 8 (≈ 4.24 µM) | 4 (≈ 2.12 µM) | 4 (≈ 2.12 µM) | 0.5 (≈ 0.265 µM) | 4 (≈ 2.12 µM) | 4 (≈ 2.12 µM) | ≤ 0.06 | 0.76 | 8 (≈ 4.24 µM) | 4 (≈ 2.12 µM) | 32 (≈ 16.9 µM) | 4 (≈ 2.12 µM) | ≤ 0.06 | 0.5 (≈ 0.265 µM) | 1 (≈ 0.529 µM) | MIC [21]: 8 µg/mL (≈ 4.24 µM); MIC [22]: 4 µg/mL (≈ 2.12 µM); MIC [23]: 8 µg/mL (≈ 4.24 µM)

Reference: patent US5840684A, “Glycopeptide antibiotic derivatives” (Eli Lilly and Company, priority 1995, dated 1998)
